PubChem BioAssay (NCI)
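Values below derive from 48-hour exposures of cells grown in 96-well plates, with endpoints linearly interpolated between the two concentrations bracketing the appropriate inhibition level. GI50: concentration for 50% inhibition of growth. TGI marks complete inhibition of growth.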

Assays:
Experiment in all cases: NCI tumour cell line growth inhibition, 48 h
MDA-MB-435 = system: MDA-MB-435
SW-620 colon = system: SW-620 colon
HCT-116 colon = system: HCT-116 colon
MDA-MB-231 breast = system: MDA-MB-231 breast
K-562 leukemia = system: K-562 leukemia
NCI/ADR-RES ovarian = system: NCI/ADR-RES ovarian
HCC-2998 colon = system: HCC-2998 colon
T-47D breast = system: T-47D breast
SK-MEL-2 melanoma = system: SK-MEL-2 melanoma
SNB-75 CNS = system: SNB-75 CNS

Row | Structure (SMILES) | TGI (MDA-MB-435) [µM] | TGI (SW-620 colon) [µM] | TGI (HCT-116 colon) [µM] | TGI (MDA-MB-231 breast) [µM] | TGI (K-562 leukemia) [µM] | TGI (NCI/ADR-RES ovarian) [µM] | TGI (HCC-2998 colon) [µM] | TGI (T-47D breast) [µM] | TGI (SK-MEL-2 melanoma) [µM] | TGI (SNB-75 CNS) [µM] | GI50 (SNB-75 CNS) [µM] | GI50 (MDA-MB-435) [µM] | GI50 (SW-620 colon) [µM] | GI50 (HCT-116 colon) [µM] | GI50 (MDA-MB-231 breast) [µM] | GI50 (K-562 leukemia) [µM] | GI50 (NCI/ADR-RES ovarian) [µM] | GI50 (HCC-2998 colon) [µM] | GI50 (T-47D breast) [µM] | GI50 (SK-MEL-2 melanoma) [µM]
1 | COc1cc(C=C2C(C)=NN(c3cccc(Cl)c3)C23SCC(=O)N3c2nc3ccccc3s2)ccc1O (stereo unspecified) | > 100 | 96.9 | 65.3 | 54.6 | 37.2 | > 96.7 | > 83.5 | > 100 | 39.5 | – | – | – | – | – | – | – | – | – | – | –
2 | CNC(=O)OC(C)CN1c2ccccc2Sc2ccc(Cl)cc21 (stereo unspecified) | > 10 | > 10 | > 10 | > 10 | > 10 | > 10 | > 10 | > 10 | > 10 | > 10 | – | – | – | – | – | – | – | – | – | –
3 | CCOC(=O)CSc1nc(N)c2c(-c3ccc(OC)c(OC)c3)c3c(nc2n1)CCCC3 | > 100 | > 100 | > 100 | > 100 | > 100 | > 100 | – | > 100 | – | 32.6 | – | – | – | – | – | – | – | – | – | –
4 | COc1ccc2nc(-n3c(/C=C/c4ccccc4O)nc4ccccc4c3=O)sc2c1 | 49.2 | > 100 | 65.3 | > 100 | 59.6 | > 100 | > 100 | – | > 100 | > 100 | – | – | – | – | – | – | – | – | – | –
5 | CC[C@H]1C=CCC[C@@]2(C[C@@H]3CC[C@@H]4[C@H](C(=O)OCCCCCCCCCCCCCCCC(=O)O)[C@]5(CCC[C@@H](C)O5)NC(=[N+]34)N2)O1 | 6.27 | 6.37 | 2.16 | 9.09 | 5.73 | 14.8 | 0.283 | 11.9 | 0.347 | – | – | – | – | – | – | – | – | – | – | –
6 | Cn1c(=O)c2c(nc(-n3nc(-c4ccc(Cl)cc4)cc3N)n2C)n(C)c1=O | > 100 | – | > 100 | > 100 | > 100 | > 100 | > 100 | – | > 100 | – | – | – | – | – | – | – | – | – | – | –
7 | COc1ccc2nc(-c3ccc(-c4noc(-c5cc(OC)c(OC)c(OC)c5)n4)cc3)[nH]c2c1 | 39.8 | 56.5 | 10.7 | 13.9 | > 100 | 23.6 | > 100 | 35.9 | 51.1 | 27.4 | 12.5 | 4.27 | 5.89 | 1.9 | 2.65 | 1.2 | 3.32 | 35.5 | 14.7 | 18.9
8 | CCCNC(=O)c1cc(NC(=O)c2cc(NC(=O)/C=C/c3ccccc3)c(OC)c(OC)c2)c(OC)c(OC)c1 | 66.5 | > 100 | > 100 | 6.27 | > 100 | 56 | – | – | 31.2 | 7.76 | – | – | – | – | – | – | – | – | – | –
9 | ONc1ncnc2nc[nH]c12 | – | > 100 | > 100 | – | > 100 | – | > 100 | – | > 100 | > 100 | – | – | – | – | – | – | – | – | – | –
10 | CN(C)CC(=O)Nc1ccc(Cn2nnc3c2C(=O)c2nnn(Cc4ccc(NC(=O)CN(C)C)cc4)c2C3=O)cc1 | 0.198 | – | 0.275 | – | > 100 | > 100 | 0.37 | 0.449 | – | 0.342 | 0.172 | 0.0708 | – | 0.0843 | – | 0.293 | > 100 | 0.162 | 0.166 | –
11 | N=C(N)c1ccc(-c2ccc(-c3cc(Cl)cc(Cl)c3)o2)nc1 | 3.38 | 3.41 | – | 3.3 | 3.88 | 3.81 | 3.8 | – | 3.9 | 3.15 | 1.64 | 1.76 | 1.78 | – | 1.65 | 1.5 | 1.93 | 1.92 | – | 2.09
12 | CCC1C(C#N)=C(N)OC2=C1C(=O)CC(C)(C)C2 (stereo unspecified) | > 100 | > 100 | > 100 | > 100 | – | > 100 | > 100 | – | > 100 | – | – | – | – | – | – | – | – | – | – | –
13 | CC(=O)Nc1cc([As](=O)(O)O)ccc1O | > 100 | > 100 | > 100 | > 100 | > 100 | > 100 | > 100 | > 100 | > 100 | > 100 | – | – | – | – | – | – | – | – | – | –
14 | CC#CC#C/C=C1/O[C@]2(CCC(OC(C)=O)CO2)[C@@H]2O[C@H]12 (stereo partly specified) | 81.5 | 95.9 | 40.6 | 44.2 | > 100 | 58.1 | 33 | 52.1 | 40.5 | > 100 | – | – | – | – | – | – | – | – | – | –
15 | COc1cccc(N=Cc2cc3cc(Br)ccc3nc2Cl)c1 | > 50 | > 50 | > 50 | – | > 50 | > 50 | > 50 | > 50 | > 50 | > 50 | – | – | – | – | – | – | – | – | – | –
16 | CCCc1[nH]c(SCCCCCCCCSc2nc(-c3ccc(F)cc3)c(CCC)[nH]2)nc1-c1ccc(F)cc1 | – | > 100 | > 100 | – | > 100 | – | > 100 | – | > 100 | 8.5 | – | – | – | – | – | – | – | – | – | –
17 | O=C(CCCCCCC(=O)Nc1ccc(N(CCCl)CCCl)cc1)NO | 12 | 22 | 12.9 | 52.4 | 12.3 | > 100 | 22.6 | 7.37 | – | 10.1 | 1.35 | 1.87 | 1.71 | 1.97 | 6.99 | 1.75 | 5.4 | 9.26 | 1.63 | –
